Our source for the IC50 values is patent publication US20230081426A1, “COMPOUNDS AND METHODS FOR KRAS MODULATION AND INDICATIONS THEREFOR” (Plexxikon Inc., priority 2020, published 2023).

The target of test [1] is T1, G12D-mutant human KRAS (amino acid residues 1-188) (Homo sapiens, UniProt P01116, G12D).
T1 construct: G12D or G12C-mutant human KRAS (amino acid residues 1-188) with FLAG tag; made in house; host or cells: E. coli
Put plainly: KRAS Binding Disruption Assay (AlphaScreen; biotinylated KRpep-2d analogue or RAF1-RBD), G12D. The conditions noted are these: KRAS G12D; geometric mean; read-out: KRAS GMean IC50 (uM) MUTATION: G12D. The method, boiled down:
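AlphaScreen readout: signal falls as compound displaces biotinylated KRpep-2d analogue or RAF1-RBD from mutant KRAS. Both partners at 5-20 nM, 1 h binding at 25° C, then 10 μg/mL Anti-Flag acceptor and streptavidin donor beads for 1 h. IC50 by nonlinear regression of % inhibition.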
For orientation: Bead proximity is the source of the signal in Alpha formats.

For test [2], the target named is T2, G12V-mutant human KRAS (amino acid residues 1-188) (Homo sapiens, UniProt P01116, G12V).
T2 construct: G12V-mutant human KRAS (amino acid residues 1-188) with FLAG tag was purified from E. coli; made in house; host or cells: E. coli
Kind of test: KRAS Binding Competition Assay (AlphaScreen; biotinylated KRpep-2d analogue), G12V. The conditions noted are these: geometric mean, read-out: KRAS GMean IC50 (uM) MUTATION: G12V.

What is called IC50 is the concentration that inhibits the measured activity by half. Take `CN1CCC[C@H]1COc1nc(N2[C@@H]3CC[C@H]2CN(CC(=O)N2CC(O)C2)C3)c2ccc(-c3cc(O)cc4ccccc34)cc2n1` [P-0275, 1-(3-hydroxyazetidin-1-yl)-2-((1R,5S)-8-(7-(3-hydroxynaphthalen-1-yl)-2-(((S)-1-methylpyrrolidin-2-yl)methoxy)quinazolin-4-yl)-3,8-diazabicyclo[3.2.1]octan-3-yl)ethan-1-one]: the IC50 in test [1] and in test [2] was 10 to 100 µM each time.
Consider `CN1CCC[C@H]1COc1nc(N2[C@@H]3CC[C@H]2CN(CC(=O)N2CCOCC2)C3)c2ccc(-c3cc(O)cc4ccccc34)cc2n1` [P-0276, 2-((1R,5S)-8-(7-(3-hydroxynaphthalen-1-yl)-2-(((S)-1-methylpyrrolidin-2-yl)methoxy)quinazolin-4-yl)-3,8-diazabicyclo[3.2.1]octan-3-yl)-1-morpholinoethan-1-one], for which the IC50 in test [1] and in test [2] was 10 to 100 µM each time.
As for `CN1CCN(C(=O)CN2C[C@H]3CC[C@@H](C2)N3c2nc(OC[C@@H]3CCCN3C)nc3cc(-c4cc(O)cc5ccccc45)ccc23)CC1` [P-0277, 2-((1R,5S)-8-(7-(3-hydroxynaphthalen-1-yl)-2-(((S)-1-methylpyrrolidin-2-yl)methoxy)quinazolin-4-yl)-3,8-diazabicyclo[3.2.1]octan-3-yl)-1-(4-methylpiperazin-1-yl)ethan-1-one], the IC50 in test [1] lay in the range of 0.0001 to 10 µM; in test [2], 10 to 100 µM.
As for `CN1CCC[C@H]1COc1nc(N2C[C@H]3CC[C@@H](C2)N3CC(=O)C2CCOC2)c2ccc(-c3cc(O)cc4ccccc34)c(F)c2n1` (stereo partly drawn) [P-0278, 2-((1R,5S)-3-(8-fluoro-7-(3-hydroxynaphthalen-1-yl)-2-(((S)-1-methylpyrrolidin-2-yl)methoxy)quinazolin-4-yl)-3,8-diazabicyclo[3.2.1]octan-8-yl)-1-(tetrahydrofuran-3-yl)ethan-1-one], the IC50 in test [1] was 0.0001 to 10 µM; in test [2], 10 to 100 µM.
As for `CN(C)CCNS(=O)(=O)N1[C@@H]2CC[C@H]1CN(c1nc(OCC34CCCN3CCC4)nc3c(F)c(-c4cc(O)cc5ccccc45)ccc13)C2` [P-0280, (1R,5S)-N-(2-(dimethylamino)ethyl)-3-(8-fluoro-7-(3-hydroxynaphthalen-1-yl)-2-((tetrahydro-1H-pyrrolizin-7a(5H)-yl)methoxy)quinazolin-4-yl)-3,8-diazabicyclo[3.2.1]octane-8-sulfonamide], the IC50 in test [1] and in test [2] was 0.0001 to 10 µM each time.
On to `CN1CCN(CCNS(=O)(=O)N2[C@@H]3CC[C@H]2CN(c2nc(OCC45CCCN4CCC5)nc4c(F)c(-c5cc(O)cc6ccccc56)ccc24)C3)CC1` [P-0281, (1R,5S)-3-(8-fluoro-7-(3-hydroxynaphthalen-1-yl)-2-((tetrahydro-1H-pyrrolizin-7a(5H)-yl)methoxy)quinazolin-4-yl)-N-(2-(4-methylpiperazin-1-yl)ethyl)-3,8-diazabicyclo[3.2.1]octane-8-sulfonamide], for which the IC50 in test [1] and in test [2] was 0.0001 to 10 µM throughout.
`CN1CC[C@@H](NS(=O)(=O)N2[C@@H]3CC[C@H]2CN(c2nc(OCC45CCCN4CCC5)nc4c(F)c(-c5cc(O)cc6ccccc56)ccc24)C3)C1` [P-0282, (1R,5S)-3-(8-fluoro-7-(3-hydroxynaphthalen-1-yl)-2-((tetrahydro-1H-pyrrolizin-7a(5H)-yl)methoxy)quinazolin-4-yl)-N-((R)-1-methylpyrrolidin-3-yl)-3,8-diazabicyclo[3.2.1]octane-8-sulfonamide]: the IC50 in test [1] and in test [2] was 0.0001 to 10 µM throughout.
With `CN1CCC[C@H]1COc1nc(N2[C@@H]3CC[C@H]2CNC3)c2ccc(-c3cccc4cccc(CO)c34)cc2n1` [P-0283, (8-(4-((1R,5S)-3,8-diazabicyclo[3.2.1]octan-8-yl)-2-(((S)-1-methylpyrrolidin-2-yl)methoxy)quinazolin-7-yl)naphthalen-1-yl)methanol], the half-maximal inhibitory concentration (IC50) in test [1] and in test [2] was 10 to 100 µM each time.
In the case of `O=S(=O)(N[C@@H]1CCNC1)N1[C@@H]2CC[C@H]1CN(c1nc(OCC34CCCN3CCC4)nc3c(F)c(-c4cc(O)cc5ccccc45)ccc13)C2` [P-0284, (1R,5S)-3-(8-fluoro-7-(3-hydroxynaphthalen-1-yl)-2-((tetrahydro-1H-pyrrolizin-7a(5H)-yl)methoxy)quinazolin-4-yl)-N-((R)-pyrrolidin-3-yl)-3,8-diazabicyclo[3.2.1]octane-8-sulfonamide], the IC50 in test [1] and in test [2] was 0.0001 to 10 µM throughout.
For the compound `CN1CCC[C@H]1COc1nc(N2[C@@H]3CC[C@H]2CNC3)c2ccc(-c3cccc(O)c3)cc2n1` [P-0285, 3-(4-((1R,5S)-3,8-diazabicyclo[3.2.1]octan-8-yl)-2-(((S)-1-methylpyrrolidin-2-yl)methoxy)quinazolin-7-yl)phenol], the IC50 in test [1] and in test [2] was 100 to 1000 µM throughout.
With `Cc1c(N)cccc1-c1ccc2c(N3[C@@H]4CC[C@H]3CNC4)nc(OC[C@@H]3CCCN3C)nc2c1` [P-0286, 3-(4-((1R,5S)-3,8-diazabicyclo[3.2.1]octan-8-yl)-2-(((S)-1-methylpyrrolidin-2-yl)methoxy)quinazolin-7-yl)-2-methylaniline], the IC50 in test [1] and in test [2] was 10 to 100 µM in each case.
As to `CN(C)CCCS(=O)(=O)N1[C@@H]2CC[C@H]1CN(c1nc(OCC34CCCN3CCC4)nc3c(F)c(-c4cc(O)cc5ccccc45)ccc13)C2` [P-0287, 4-(4-((1R,5S)-8-((3-(dimethylamino)propyl)sulfonyl)-3,8-diazabicyclo[3.2.1]octan-3-yl)-8-fluoro-2-((tetrahydro-1H-pyrrolizin-7a(5H)-yl)methoxy)quinazolin-7-yl)naphthalen-2-ol], the IC50 in test [1] and in test [2] was 0.0001 to 10 µM in each case.
Turning to `CN1CCC[C@H]1COc1nc(N2[C@@H]3CC[C@H]2CNC3)c2ccc(-c3c(F)ccc(N)c3F)cc2n1` [P-0288, 3-(4-((1R,5S)-3,8-diazabicyclo[3.2.1]octan-8-yl)-2-(((S)-1-methylpyrrolidin-2-yl)methoxy)quinazolin-7-yl)-2,4-difluoroaniline], the IC50 in test [1] and in test [2] was 10 to 100 µM in each case.
Regarding `CN1CCC[C@H]1COc1nc(N2C[C@H]3CC[C@@H](C2)N3)c2ccc(Nc3n[nH]c4ccccc34)cc2n1` [P-0289, 4-((1R,5S)-3,8-diazabicyclo[3.2.1]octan-3-yl)-N-(1H-indazol-3-yl)-2-(((S)-1-methylpyrrolidin-2-yl)methoxy)quinazolin-7-amine], the IC50 in test [1] and in test [2] was 10 to 100 µM each time.
Consider `CN1CCC[C@H]1COc1nc(N2[C@@H]3CC[C@H]2CNC3)c2ccc(-c3c(O)cccc3Cl)cc2n1` [P-0290, 2-(4-((1R,5S)-3,8-diazabicyclo[3.2.1]octan-8-yl)-2-(((S)-1-methylpyrrolidin-2-yl)methoxy)quinazolin-7-yl)-3-chlorophenol], for which the IC50 in test [1] and in test [2] was 10 to 100 µM each time.
Consider `Cc1cccc(N)c1-c1ccc2c(N3[C@@H]4CC[C@H]3CNC4)nc(OC[C@@H]3CCCN3C)nc2c1` [P-0291, 2-(4-((1R,5S)-3,8-diazabicyclo[3.2.1]octan-8-yl)-2-(((S)-1-methylpyrrolidin-2-yl)methoxy)quinazolin-7-yl)-3-methylaniline], for which the IC50 in test [1] and in test [2] was 10 to 100 µM throughout.
With `CN1CCC[C@H]1COc1nc(N2[C@@H]3CC[C@H]2CN(C(=O)CC2SC(=O)NC2=O)C3)c2ccc(-c3cc(O)cc4ccccc34)cc2n1` (stereo partly drawn) [P-0292, 5-(2-((1R,5S)-8-(7-(3-hydroxynaphthalen-1-yl)-2-(((S)-1-methylpyrrolidin-2-yl)methoxy)quinazolin-4-yl)-3,8-diazabicyclo[3.2.1]octan-3-yl)-2-oxoethyl)thiazolidine-2,4-dione], the IC50 in test [1] and in test [2] was 10 to 100 µM throughout.
For `CN1CCC[C@H]1COc1nc(N2C[C@H]3CC[C@@H](C2)N3)c2ccc(-c3c[nH]c4ccccc34)c(F)c2n1` [P-0293, 4-((1R,5S)-3,8-diazabicyclo[3.2.1]octan-3-yl)-8-fluoro-7-(1H-indol-3-yl)-2-(((S)-1-methylpyrrolidin-2-yl)methoxy)quinazoline], the IC50 was in the range of 0.0001 to 10 µM in test [1] and 10 to 100 µM in test [2].
As for `CN1CCC[C@H]1COc1nc(N2C[C@H]3CC[C@@H](C2)N3)c2ccc(-c3c[nH]c4cccc(Cl)c34)c(F)c2n1` [P-0294, 4-((1R,5S)-3,8-diazabicyclo[3.2.1]octan-3-yl)-7-(4-chloro-1H-indol-3-yl)-8-fluoro-2-(((S)-1-methylpyrrolidin-2-yl)methoxy)quinazoline], the IC50 in test [1] and in test [2] was 10 to 100 µM throughout.
`CN1CCC[C@H]1COc1nc(N2C[C@H]3CC[C@@H](C2)N3)c2ccc(-c3c[nH]c4ccc(Cl)cc34)c(F)c2n1` [P-0295, 4-((1R,5S)-3,8-diazabicyclo[3.2.1]octan-3-yl)-7-(5-chloro-1H-indol-3-yl)-8-fluoro-2-(((S)-1-methylpyrrolidin-2-yl)methoxy)quinazoline]: the IC50 in test [1] fell in the range of 0.0001 to 10 µM; in test [2] it was 100 to 1000 µM.
For `CN1CCC[C@H]1COc1nc(N2CC3CCCC2CN3)c2ccc(-c3cc(O)cc4ccccc34)c(F)c2n1` (stereo partly drawn) [P-0296, 4-(4-(6,8-diazabicyclo[3.2.2]nonan-6-yl)-8-fluoro-2-(((S)-1-methylpyrrolidin-2-yl)methoxy)quinazolin-7-yl)naphthalen-2-ol], the IC50 in test [1] lay within 0.0001 to 10 µM; in test [2], 10 to 100 µM.
